In brackets after ≈: the same amount, converted by molar mass. Entries after “also recorded” stand apart in the source; their conditions may differ. Read-outs that look alike come from different tables or passages of the source.
Key:
[1] = system: human hepatoma BEL-7402 cells; experiment: MTT anti-tumor test in vitro, BEL-7402; format: cell-based; conditions: Homo sapiens, Bel-7402, 48 h, Bel- (BEL-7402)
From the text: (§1) A complete culture medium is used for diluting the above original solution into corresponding concentrations for later use.
(§2) Human cervical carcinoma Hela cells, human hepatoma BEL-7402 cells, mucinous Human epidermoid A549 lung cancer cells, human breast cancer MCF-7/S cells, human glioma U251 cells, and human normal embryonic kidney HEK-293 cells are purchased from USA, American Type Culture Collection (ATCC). All the tumor cells are used the DMEM medium (containing 10% FBS, 100 U/ml penicillin and 100 μg/ml streptomycin) for culturing and subculturing, and HEK-293 cells are using RPMI1640 medium (10% FBS, 100 U/ml penicillin, and 100 μg/ml streptomycin) for culturing and subculturing, wherein the culture condition is in a 5% CO2 incubator at 37° C.
(§3) Subculture six kinds of cells, which has a logarithmic growing period, adherent rate about 80%, and in good condition, such as human cervical carcinoma Hela cells, human hepatoma BEL-7402 cells, mucinous Human epidermoid A549 lung cancer cells, human breast cancer MCF-7/S cells, human glioma U251 cells, and human normal embryonic kidney HEK-293 cells. Discard the culture medium, rinse 1-2 times with PBS to remove serum, add 1 ml 0.25% Trypsin-0.01% EDTA (37° C. incubation) to digest for 1-2 minutes, add FBS culture medium to terminate the above digestion, centrifuge at a speed below 800 r/min for 2-3 minutes and discard the supernatant, re-suspended cells in 10% FBS medium, tack the cell suspension liquid for cell counting, adjust the density of the above liquid to 1×10^5/ml, then inoculate to a 96-holes plates (100 μl/hole), and then incubate in 5% CO2 incubator at 37° C. overnight. The next day add above cells to different concentrations of I-a, I-b, I-c and I-d, 100 μl/hole (its final concentration is respectively 30, 60, 120, 240, 480 μg/ml); meanwhile, set up the blank control group (0 μM), and establish 3 holes. Continuing the cultural process, discard the culture medium after 48 hours that the drug has been effected, add 100 μl PBS of 0.5 mg/ml MTT (PH 7.2) into each holes, after 4 hours culture, remove the culture medium by adherent cells express flipping method, add 100 μl of DMSO to each holes, oscillate it by micro-oscillation device for 5 minutes, and measure the OD value at 490 nm wavelength. Repeat the above experiment three times to get an average value. Calculate the inhibition rate (IR %) of the tumor cell proliferation in vitro from different concentrations of I-a, I-b, I-c, I-d by the following formula:
(§4) IR %=(1−ODsampale/ODcontrol)×100%
(§5) Use SPSS11.5 software to calculate the half inhibitory concentration IC50 of I-a, I-b, I-c and I-d. The results are shown in Table 2 to illustrate IC50 values (unit: μg/ml) of the four compounds.

[2] = Solubility of compounds in solvents (Table 1); format: physicochemical
[3] = system: human cervical carcinoma Hela cells; experiment: MTT anti-tumor test in vitro, Hela; format: cell-based; conditions: Homo sapiens, HeLa, 48 h
From the text: as §1, §2, §3, §4, §5

[4] = system: human breast cancer MCF-7/S cells; experiment: MTT anti-tumor test in vitro, MCF-7/S; format: cell-based; conditions: Homo sapiens, MCF7S, 48 h, MCF-7 (MCF-7/S)
From the text: as §1, §2, §3, §4, §5

human glioma U251 cells = experiment: MTT anti-tumor test in vitro, U251; format: cell-based; conditions: Homo sapiens, U-251, 48 h
From the text: as §1, §2, §3, §4, §5

[5] = single tail vein administration 350 mg/kg; for death / survival in acute toxicity test: 14 days observation, 350 mg/kg
Procedure: After the drug delivery, continuously observe the mice responses for 4 hours; after all, observe the mice twice a day (one is in the morning, and the other is in the afternoon) for 14 days, wherein the observation includes the appearance, behavior, secretions, excreta of the mice etc., and recording all the death situation, poisoning symptoms, the starting time and ending time of toxic reactions of the mice, severity, duration time of toxic, and to see if it is reversible reaction etc., sent it to the pathology examination if necessary, weight the mice before and after the drug delivered day of 3, 7, 10, and 14 days. After finishing the observation process, execute all of the mice, and anatomize the dead bodies of mice.

[6] = system: mice ascites hepatoma cell strain H22; experiment: Anti-tumor test in vivo, mice transplanted tumor of liver cancer H22; design: species or system Kunming mice
Procedure: The mice ascites hepatoma cell strain H22 is purchased from the Experimental Center of Zhongshan University.
Recovery the mice ascites hepatoma cell strain H22, put the cell suspension liquid into a centrifugal tube and use the 4° C. saline to wash the suspension liquid twice, then centrifuge to discard the supernatant, add appropriate 4° C. saline to dilute the suspension liquid, count cells with 0.2% trypan blue, adjust the density to 10^7 cell/ml, according to 0.2 (ml/mice) intraperitoneal inoculation H22 cell suspension liquid.
After ten days of the intraperitoneal inoculation, the cervical vertebra is dislocated. Disinfect the mice abdominal skin, and suck the milky ascites with a sterile syringe, then adjust the concentration of tumor cells to 1×10^7 cell/ml with injection used saline. Disinfect the right armpit skin of the Kunming mice with alcohol swab, subcutaneously vaccinate the cell suspension liquid 0.2 ml, conventional feeding. […] Totally there are 180 tumor-bearing mice.
The 180 tumor-bearing mice are divided into 18 groups by the weigh of the mice, wherein each group has 10 mice (half male and half female). The drug delivery methods of each group are shown in Table 3 to illustrate eighteen groups of mice drug delivery situation.
Group 1 is the model group, and the mice of group 1 are given the tail vein saline injection daily started on the second day of the tumor-bearing for 10 days.
Group 2 is the cyclophosphamide (CTX) group, and the mice of group 2 are only given the cyclophosphamide in the intraperitoneal of the mice on the second day of the tumor-bearing.
Group 3 to 18 groups are given the four compounds respectively, wherein the groups delivered 25 mg/kg drug are tail vein low-dose group, wherein the groups delivered 50 mg/kg drugs are the tail vein medium-dose group, wherein the groups delivered 100 mg/kg drugs are the tail vein high-dose group, wherein the groups delivered 200 mg/kg drugs are the oral enteral group. These mice from group 3 to 18 start the drug delivery on the second day of the tumor-bearing, and delivered once a day for 10 sequent days.
The above drug deliveries are 20 ml/kg.
After finishing the drug delivery process, weight the mice, then kill the mice by pulling off the neck, and anatomy to get the tumor tissue of the mice on the next day of finishing the drug delivery process, and then weight the anatomized tumor by electronic weighing scales to calculate the inhibition rate.

[7] = average of three experiments ± SD
[8] = Hela, average of three experiments ± SD, MTT, 48 hours, read-out: IC50 value
[9] = Hela, experiment 2, MTT, 48 hours, read-out: IC50 value
[10] = Hela, experiment 3, MTT, 48 hours, read-out: IC50 value
[11] = read-out: HeLa cell proliferation IC50 values
[12] = i.g. 200 mg·(kg·d)^−1, once a day for 10 days
[13] = i.v. 25 mg·(kg·d)^−1, once a day for 10 days
[14] = i.v. 25 mg·(kg·d)^−1, once a day for 10 days (low-dose group)
[15] = i.v. 50 mg·(kg·d)^−1, once a day for 10 days
[16] = i.v. 50 mg·(kg·d)^−1, once a day for 10 days (medium-dose group)
[17] = i.v. 100 mg·(kg·d)^−1, once a day for 10 days
[18] = Hela, experiment 1, MTT, 48 hours, read-out: IC50 value

COc1ccc(/C=C/C(=O)O)c(O)c1CC=C(C)C [I-a, (E)-2-hydroxy-4-methoxy-3-isopentenyl-cinnamic acid]
IC50 [1, 7]: 249 ± 17.9 µg/mL (≈ 950 µM)
IC50 ([1]; experiment 2): 237 µg/mL (≈ 904 µM)
IC50 ([1]; experiment 3): 269 µg/mL (≈ 1030 µM)
Solubility ([2]; solvent 0.1% NaOH): Soluble
Solubility ([2]; solvent Acetone): Soluble
Solubility ([2]; solvent Chloroform): Dissolved
Solubility ([2]; solvent DMSO): Soluble
Solubility ([2]; solvent Ethanol): Soluble
Solubility ([2]; solvent Methanol): Soluble
IC50 [3, 8]: 103 ± 8.48 µg/mL (≈ 391 µM)
IC50 [3, 9]: 115 µg/mL (≈ 438 µM)
IC50 [3, 10]: 96 µg/mL (≈ 366 µM)
IC50 [3, 11]: 103 ± 8.48 µg/mL (≈ 391 µM)
IC50 [4, 7]: 225 ± 11.9 µg/mL (≈ 857 µM)
IC50 ([4]; experiment 2): 216 µg/mL (≈ 823 µM)
IC50 ([4]; experiment 3): 219 µg/mL (≈ 835 µM)
IC50 (human glioma U251 cells; [7]): 181 ± 7.98 µg/mL (≈ 691 µM)
IC50 (human glioma U251 cells; experiment 2): 173 µg/mL (≈ 660 µM)
IC50 (human glioma U251 cells; experiment 3): 180 µg/mL (≈ 686 µM)
drug reaction after administration [5]: abnormally excited at first, and then become in an inhibit state
death / survival in acute toxicity test [5]: All the mice are survived; also recorded: no toxic deaths
Tumor weight/g [6, 12]: 0.907 ± 0.424 g
Tumor weight/g [6, 13]: 1.398 ± 0.355 g
IR/% (inhibition rate) [6, 14]: 8.8%
Tumor weight/g [6, 15]: 1.047 ± 0.342 g
IR/% (inhibition rate) [6, 16]: 31.7%
Tumor weight/g [6, 17]: 0.775 ± 0.381 g

COc1ccc(/C=C\C(=O)O)c(OC)c1CC=C(C)C [I-b, (Z)-2,4-dimethoxy-3-isopentenyl-cinnamic acid]
IC50 [1, 7]: 346 ± 10.1 µg/mL (≈ 1250 µM)
IC50 ([1]; experiment 1): 343 µg/mL (≈ 1240 µM)
IC50 ([1]; experiment 2): 357 µg/mL (≈ 1290 µM)
IC50 ([1]; experiment 3): 338 µg/mL (≈ 1220 µM)
Solubility ([2]; solvent 0.1% NaOH): Soluble
Solubility ([2]; solvent Acetone): Dissolved
Solubility ([2]; solvent Chloroform): Dissolved
Solubility ([2]; solvent DMSO): Soluble
Solubility ([2]; solvent Ethanol): Dissolved
Solubility ([2]; solvent Methanol): Soluble
IC50 [3, 8]: 324 ± 11.6 µg/mL (≈ 1170 µM)
IC50 [3, 18]: 331 µg/mL (≈ 1200 µM)
IC50 [3, 9]: 310 µg/mL (≈ 1120 µM)
IC50 [3, 10]: 328 µg/mL (≈ 1190 µM)
IC50 [3, 11]: 324 ± 11.6 µg/mL (≈ 1170 µM)
IC50 [4, 7]: 311 ± 7.31 µg/mL (≈ 1130 µM)
IC50 ([4]; experiment 1): 312 µg/mL (≈ 1130 µM)
IC50 ([4]; experiment 2): 317 µg/mL (≈ 1150 µM)
IC50 ([4]; experiment 3): 303 µg/mL (≈ 1100 µM)
IC50 (human glioma U251 cells; [7]): 287 ± 9.58 µg/mL (≈ 1040 µM)
IC50 (human glioma U251 cells; experiment 1): 277 µg/mL (≈ 1000 µM)
IC50 (human glioma U251 cells; experiment 2): 284 µg/mL (≈ 1030 µM)
IC50 (human glioma U251 cells; experiment 3): 298 µg/mL (≈ 1080 µM)
drug reaction after administration [5]: abnormally excited at first, and then become in an inhibit state
death / survival in acute toxicity test [5]: All the mice are survived; also recorded: no toxic deaths
Tumor weight/g [6, 12]: 1.108 ± 0.364 g
Tumor weight/g [6, 13]: 1.367 ± 0.524 g
IR/% (inhibition rate) [6, 14]: 10.8%
Tumor weight/g [6, 15]: 1.152 ± 0.47 g
IR/% (inhibition rate) [6, 16]: 24.8%
Tumor weight/g [6, 17]: 0.911 ± 0.417 g

COc1ccc(/C=C/C(=O)O)c(OC)c1CC=C(C)C [I-c, (E)-2,4-dimethoxy-3-isopentenyl-cinnamic acid]
IC50 [1, 7]: 313 ± 11.7 µg/mL (≈ 1130 µM)
IC50 ([1]; experiment 1): 315 µg/mL (≈ 1140 µM)
IC50 ([1]; experiment 2): 300 µg/mL (≈ 1090 µM)
IC50 ([1]; experiment 3): 323 µg/mL (≈ 1170 µM)
Solubility ([2]; solvent 0.1% NaOH): Soluble
Solubility ([2]; solvent Acetone): Dissolved
Solubility ([2]; solvent Chloroform): Dissolved
Solubility ([2]; solvent DMSO): Soluble
Solubility ([2]; solvent Ethanol): Dissolved
Solubility ([2]; solvent Methanol): Soluble
IC50 [3, 8]: 96.2 ± 1.25 µg/mL (≈ 348 µM)
IC50 [3, 18]: 95 µg/mL (≈ 344 µM)
IC50 [3, 9]: 85.6 µg/mL (≈ 310 µM)
IC50 [3, 10]: 97 µg/mL (≈ 351 µM)
IC50 [3, 11]: 96.2 ± 1.25 µg/mL (≈ 348 µM)
IC50 [4, 7]: 235 ± 5.68 µg/mL (≈ 849 µM)
IC50 ([4]; experiment 1): 234 µg/mL (≈ 847 µM)
IC50 ([4]; experiment 2): 229 µg/mL (≈ 829 µM)
IC50 ([4]; experiment 3): 240 µg/mL (≈ 869 µM)
IC50 (human glioma U251 cells; [7]): 195 ± 7.31 µg/mL (≈ 704 µM)
IC50 (human glioma U251 cells; experiment 1): 202 µg/mL (≈ 731 µM)
IC50 (human glioma U251 cells; experiment 2): 192 µg/mL (≈ 695 µM)
IC50 (human glioma U251 cells; experiment 3): 188 µg/mL (≈ 680 µM)
drug reaction after administration [5]: abnormally excited at first, and then become in an inhibit state
death / survival in acute toxicity test [5]: All the mice are survived; also recorded: no toxic deaths
Tumor weight/g [6, 12]: 0.866 ± 0.489 g
Tumor weight/g [6, 13]: 1.322 ± 0.278 g
IR/% (inhibition rate) [6, 14]: 13.7%
Tumor weight/g [6, 15]: 0.875 ± 0.379 g
Tumor weight/g [6, 17]: 0.782 ± 0.368 g

Source: patent US20110028758A1, “Trans-cinnamic acid derivative, its preparation mathod and the use” (priority 2007, published 2011)
